Results as given in US6579693B1, “Genetically engineered yeast strains” (Aventis Pharma S.A., priority 1995, dated 2003).

Key:
W(Ghr, ΔB) clones = test: resistance of yeast clones to ketoconazole; format: cell-based, S. cerevisiae; details: three W(Ghr, ΔB) clones, human reductase under GAPDH promoter
Experimental: The second selection: the resistance of the W(Ghr, ΔB) clones to ketoconazole was evaluated (Patent No. WO94/01564) in order to verify the activity of the human reductase expressed under the control of the GAPDH promoter. Three different clones are resistant to 20 mg of ketoconazole/ml, while the W(hR) strain, in which the human reductase is expressed under the control of the GAL10-CYC1 promoter, is only resistant to from 1 to 5 mg/ml under the same conditions.

P450 cytochrome 1A1 = target: T1, P450 cytochrome 1A1 (Homo sapiens, UniProt P04798); test: EROD activity test on microsomes (O-deethylation of 7-ethoxyresorufin); format: biochemical; details: microsomes of strain W(R, LHb5), rabbit cytochrome b5 added
T1 construct: made in house; host or cells: Saccharomyces cerevisiae W303-derived strains, e.g. W(R, LHb5); microsomal fractions
T1 sequence (P04798 1-512): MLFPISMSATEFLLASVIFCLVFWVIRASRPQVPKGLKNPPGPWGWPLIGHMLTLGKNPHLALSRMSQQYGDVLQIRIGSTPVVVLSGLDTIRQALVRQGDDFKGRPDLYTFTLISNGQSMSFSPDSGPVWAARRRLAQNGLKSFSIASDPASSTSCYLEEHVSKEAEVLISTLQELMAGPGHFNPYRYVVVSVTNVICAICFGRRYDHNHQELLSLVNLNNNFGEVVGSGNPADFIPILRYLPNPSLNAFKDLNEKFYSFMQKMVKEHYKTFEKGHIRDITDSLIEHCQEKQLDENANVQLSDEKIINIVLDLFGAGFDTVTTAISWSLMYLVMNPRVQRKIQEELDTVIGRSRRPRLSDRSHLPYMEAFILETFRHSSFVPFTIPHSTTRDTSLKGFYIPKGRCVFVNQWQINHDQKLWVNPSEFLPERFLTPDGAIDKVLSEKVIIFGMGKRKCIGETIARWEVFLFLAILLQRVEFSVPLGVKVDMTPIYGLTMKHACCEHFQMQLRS
Experimental: The P450 cytochrome 1A1 catalyses the O-deethylation of 7-ethoxyresorufin. The product of the reaction, i.e. resorufin (7-hydroxyphenoxazine), fluoresces at 586 nm after excitation at 530 nm. The quantity of resorufin formed per unit time corresponds to the rate of resorufin accumulation.
The incubation mixture comprises:
2 μl of a microsomal suspension (between 20 and 50 μg of microsomal protein) in 1 ml of pH 7.4 TE buffer containing 50 μM NADPH and 2.5 μM 7-ethoxyresorufin. In order to determin the effect of rabbit cytochrome b5 on catalytic efficacy, the microsomal fractions are subjected to prior incubation in the cold in the presence of an excess of purified cytochrome.

Molecule: CC(=O)N1CCN(c2ccc(OCC3COC(Cn4ccnc4)(c4ccc(Cl)cc4Cl)O3)cc2)CC1 (centres unmarked) [ketoconazole]
- ketoconazole concentration to which the clones are resistant (W(Ghr, ΔB) clones): 20 mg/mL

B1: rabbit cytochrome b5: purified rabbit cytochrome b5 added in excess to microsomal fractions (protein, UniProt P00169 2-134, looked up)
Cytochrome b5: AAQSDKDVKYYTLEEIKKHNHSKSTWLILHHKVYDLTKFLEEHPGGEEVLREQAGGDATENFEDVGHSTDARELSKTFIIGELHPDDRSKLSKPMETLITTVDSNSSWWTNWVIPAISALIVALMYRLYMADD
- turnover (P450 cytochrome 1A1): 27 pmol of metabolite/pmol of cytochrome P450 per min
